# From US12673039B2, “Methods of inducing autophagy using coumarin derivatives and related compounds” (Buck Institute for Research on Aging, priority 2019, dated 2026)
# What was measured:
# HLH-30 = HLH-30 expression and activity in C. elegans (GFP reporter, immunoblot, qRT-PCR); type: in vivo; details: for HLH-30:GFP protein by immunoblot: MAH235 young adult worms
# Method: FIG. 9A-9B illustrates that coumarin 106 (“C1”. “AIC106”) induces TFEB (HLH-30) signaling in C. elegans. FIG. 9A) Nuclear TFEB homologue HLH-30 levels in HLH-30 GFP tagged worms grown from day 1 at 20° C. as a measure of TFEB activation. Values are reported as average GFP intensity visualized at a young adult stage, day-5; **p<0.0002 versus control. FIG. 9B) TFEB mRNA levels by qPCR following 24 hrs of C1 treatment (10 μM 20 μM) in worms+/−HLH30 RNAi. Values represent RNA levels versus DMSO-only control RNAi; *p<0.001 versus control RNAi.
# FIG. 18, panels A-F: AIC106 (Autophagy Inducing Coumarin-106) induces transcription of TFEB and its targets in vitro in rat N27 neuronal cells and in vivo in C. elegans. Panel A) Relative fold change in TFEB promoter activity compared to DMSO-control was determined by quantifying luciferase activity in supernatants collected from rat N27 neuronal cells post-24 hour treatment with C1 (AIC106), D1 and D2. [n=3 independent experiments (mean±SEM), **p<0.01, by one-way ANOVA with Dunnett's multiple comparisons test]. Panel B) Chemical structure of AIC106 and its structural derivative D1 and D2. Panel C) Relative fold change in mRNA of tfeb and its targets compared to DMSO-control were quantified using qRT-PCR in N27 neuronal cells post-24 hour treatment with AIC106 [N=3 independent experiments (mean±SD). *p<0.05, **p<0.01 and ****p<0.0001, by two-way ANOVA with Sidak's multiple comparisons test]. Panel D) Changes in HLH-30 expression were measured by quantifying GFP intensity in an individual GFP-tagged HLH-30 strain (MAH235) post-24 hours treatment with AIC106 and DMSO-control. [N=3 independent experiments (mean±SD). ****p<0.0001, by unpaired t-test]. Panel E) HLH-30; GFP (MAH235) were monitored by fluorescence microscopy. Panel F) Relative fold change in mRNA of hlh-30 and its targets compared to DMSO-control were quantified using qRT-PCR in young adult wild type N2 worms post-24 hours treatment with AIC106. [N=3 independent experiments (mean±SD). *p<0.05, **p<0.01 and ***p<0.001, by two-way ANOVA with Sidak's multiple comparisons test].
# FIG. 22, panels A-H: AIC106-induced HLH-30 expression is mediated by the nuclear hormone receptor DAF-12. Panel A) The upstream promoter region (2 kB) of hlh-30 was analyzed by JASPAR CORE database to determine DAF-12 binding sites (1: SEQ ID NO:1, 2: 1: SEQ ID NO:2, 3: SEQ ID NO:3, 4: SEQ ID NO:4, 5: SEQ ID NO:5, 6: SEQ ID NO:6, 7: SEQ ID NO:7, 8: SEQ ID NO:8, 9: SEQ ID NO:9, 10: SEQ ID NO:10, 11: SEQ ID NO:11, 12: SEQ ID NO:12). Panel B) Relative fold change in mRNA of hlh-30 compared to DMSO-control was quantified using qRT-PCR in young adult wild-type N2 and daf-12(rh61rh411) worms post-24 hours treatment with AIC106. [N=3 independent experiments (mean±SD). **p<0.01, by one-way ANOVA with Sidak's multiple comparisons test]. Panel C) Effects of AIC106 on DAF-12 activity was determined in a mammalian one-hybrid assay by quantifying changes in the luciferase activity of DAF-12 ligand (dafachronic acid, DA) induced treatment. [N=3 independent experiments (mean±SD). *p<0.05 **p<0.01 and ***p<0.001, by one-way ANOVA with Tukey's multiple comparisons test]. Panel D) Schematic diagram showing that addition of AIC106 or inhibition of DAF-12 ligand synthesis, which leads to un-liganded DAF-12 may result in enhanced HLH-30 expression. Panel E) Dafadine-A (DFA), a specific inhibitor of key enzyme required for synthesis of DAF-12 ligand induces HLH-30 expression. Immunoblot for GFP was performed on protein lysate of HLH-30; GFP (MAH235) young adult worms treated with DFA or DMSO-control for 24 hours. Panel F) Protection against mitochondrial toxin (FCCP) was determined by quantifying survival of young adult worms treated 24 hours with DFA or DMSO-control. [N=3 independent experiments (mean±SD). **p<0.01, by two-way ANOVA with Tukey's multiple comparisons test]. […]
# C. elegans = assay: FCCP mitochondrial toxin stress assay in C. elegans; type: in vivo; details: for resistance to mitochondrial toxin FCCP (survival): wild type worms, 24 hours treatment
# Method: FIG. 20, panels A-H: AIC106 treatment improves mitochondrial health. Panel A) Changes in mitochondrial membrane potential were determined by quantifying fluorescence intensity of individual TMRM stained wild type N2 worms post-24 hours treatment with AIC106 and DMSO-control. [N=3 independent experiments (mean±SD). ****p<0.0001, by unpaired t-test]. Panel B) TMRM stained wild type N2 worms were monitored by fluorescence microscopy. Panel C) Mitophagy flux upon AIC106 treatment was determined in DLM14 young adult worms (TOMM-7 tagged to a peptide linked dual-Fluorescent GFP) by quantifying relative fold changes in ratio of monomeric-fluorescent protein (mFP) to dual-fluorescent protein (dFP) compared to DMSO-control. Panel D) Ability of AIC106 to rescue mitochondrial toxin (FCCP) sensitivity was determined as percent survival of 24 hours treated AIC106 and DMSO-control wild type N2 worms. [N=3 independent experiments (mean±SD). ****p<0.0001, by two-way ANOVA with Sidak's multiple comparisons test]. Panel E) Ability of AIC106 to rescue enhanced mitochondrial toxin (FCCP, 20 μM) sensitivity in mitophagy deficient parkin/pdr-1 mutant was determined as percent survival of 24 hours treated AIC106 and DMSO-control pdr-1(tm598) and pdr-1(tm598); hlh-30(tm1978) mutant. […] Panel F) Effect of AIC106 on mitochondrial biogenesis was determined by quantifying GFP fluorescence intensity in an individual SJ4143 worm (GFP targeted in mitochondria of intestinal cells) post-72 hours of treatment with AIC106 and DMSO-control. […] Panel G) SJ4143 worms were monitored by fluorescence microscopy. Panel H) Effects of AIC106 on basal (B) and maximum (M) mitochondrial respiration rate were determined by quantifying oxygen consumption rate (OCR) in wild type N2 and hlh-30(tm1978) mutant strain post-24 hours of treatment with AIC106 and DMSO-control. […]
# FIG. 22, panels A-H: AIC106-induced HLH-30 expression is mediated by the nuclear hormone receptor DAF-12. […] Panel F) Protection against mitochondrial toxin (FCCP) was determined by quantifying survival of young adult worms treated 24 hours with DFA or DMSO-control. […]
SMILES,activity and expression of HLH-30 (HLH-30; Example 1 (FIG. 9)),"HLH-30 expression (GFP intensity) (HLH-30; GFP-tagged HLH-30 strain MAH235, 24 hours)",HLH-30:GFP protein by immunoblot (HLH-30; 24 hours),HLH-30 expression (hlh-30 mRNA) (HLH-30; daf-12(rh61rh411) null mutant),"mRNA levels of HLH-30 target genes (HLH-30; wild type N2 worms, 24 hours)","FCCP sensitivity of pdr-1 mutant (C. elegans; pdr-1(tm598), FCCP 20 μM, hlh-30 dependent)",resistance to mitochondrial toxin FCCP (survival) (C. elegans)
"O=c1oc2c3c4c(cc2c2c1CCC2)CCCN4CCC3 [C1, 2,3,6,7,10,11-Hexahydro-1H,5H-cyclopenta(3,4)(1)benzopyrano(6,7,8-ij)quinolizin-12(9H)-one]",induction of activity and expression of the worm TFEB homologue HLH-30,induces HLH-30 expression in worms,increase in HLH-30:GFP protein,failed to induce HLH-30 expression,mRNA levels of several HLH-30 target genes were also increased,significantly rescue enhanced mitochondrial sensitivity of pdr-1 mutant,more resistant to mitochondrial uncoupler FCCP
"Cc1cccc(C)c1OCc1cc(C(=O)N2CCC(c3ccncc3)CC2)no1 [DFA, dafadine-A, reference compound]",,,significant increase in HLH-30 expression,,,,protected against mitochondrial toxin FCCP
